{"source": "ChEMBL document CHEMBL1144791", "about": "“Facile synthesis of substituted trans-2-arylcyclopropylamine inhibitors of the human histone demethylase LSD1 and monoamine oxidases A and B” (Bioorg Med Chem Lett, 2008)", "key": {"[1]": {"target": "MAO-A (amine oxidase [flavin-containing] A), Homo sapiens (UniProt P21397)", "sequence (P21397 whole entry, looked up)": "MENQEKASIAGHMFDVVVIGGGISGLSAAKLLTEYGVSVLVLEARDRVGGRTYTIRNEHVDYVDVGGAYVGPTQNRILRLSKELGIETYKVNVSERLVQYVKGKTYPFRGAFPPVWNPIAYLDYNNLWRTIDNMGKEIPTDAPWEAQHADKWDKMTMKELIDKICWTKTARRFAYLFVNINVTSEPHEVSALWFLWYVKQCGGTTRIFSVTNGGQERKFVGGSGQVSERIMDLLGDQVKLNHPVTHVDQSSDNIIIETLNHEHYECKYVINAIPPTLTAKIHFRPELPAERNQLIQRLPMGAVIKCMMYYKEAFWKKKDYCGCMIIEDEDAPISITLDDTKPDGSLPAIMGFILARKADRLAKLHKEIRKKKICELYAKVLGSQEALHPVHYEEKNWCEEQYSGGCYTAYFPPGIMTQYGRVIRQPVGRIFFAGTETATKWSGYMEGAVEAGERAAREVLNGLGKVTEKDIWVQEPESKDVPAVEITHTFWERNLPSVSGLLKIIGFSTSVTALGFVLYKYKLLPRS", "assay": "Ratio of Kinact to KI of human MAOA"}, "[2]": {"target": "MAO-B (amine oxidase [flavin-containing] B), Homo sapiens (UniProt P27338)", "sequence (P27338 whole entry, looked up)": "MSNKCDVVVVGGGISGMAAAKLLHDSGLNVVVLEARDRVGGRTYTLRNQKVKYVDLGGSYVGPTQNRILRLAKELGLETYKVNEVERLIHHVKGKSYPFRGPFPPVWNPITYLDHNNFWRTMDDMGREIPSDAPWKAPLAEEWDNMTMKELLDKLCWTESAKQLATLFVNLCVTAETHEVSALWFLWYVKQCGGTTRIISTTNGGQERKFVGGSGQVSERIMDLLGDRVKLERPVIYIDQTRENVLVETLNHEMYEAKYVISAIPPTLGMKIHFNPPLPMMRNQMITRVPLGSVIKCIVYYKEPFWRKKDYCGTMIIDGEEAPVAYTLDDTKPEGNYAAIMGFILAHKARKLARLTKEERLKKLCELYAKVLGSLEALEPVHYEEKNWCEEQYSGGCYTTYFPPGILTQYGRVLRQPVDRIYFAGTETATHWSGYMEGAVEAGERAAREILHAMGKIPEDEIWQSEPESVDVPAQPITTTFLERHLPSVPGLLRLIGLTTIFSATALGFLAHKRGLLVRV", "assay": "Ratio of Kinact to KI of human MAOB"}, "[3]": {"assay": "Inhibition of human MAOB", "conditions": "read-out: Kinact"}, "[4]": {"assay": "Inhibition of human MAOA", "conditions": "read-out: Kinact"}}, "data": [{"smiles": "N[C@@H]1C[C@H]1c1ccc(C(F)(F)F)cc1", "note": "(relative stereo)", "values": [{"measurement": "kinact/KI", "setting": "[1]", "value": 2860, "unit": "M⁻¹ s⁻¹"}, {"measurement": "kinact/KI", "setting": "[2]", "value": 7510, "unit": "M⁻¹ s⁻¹"}, {"measurement": "KI (inactivation)", "setting": "[3]", "value": 29.8, "unit": "µM"}, {"measurement": "KI (inactivation)", "setting": "[4]", "value": 7.7, "unit": "µM"}]}, {"smiles": "NC1CC1(c1ccccc1)c1ccccc1", "note": "(stereo not drawn)", "values": [{"measurement": "kinact/KI", "setting": "[1]", "value": "< 14", "unit": "M⁻¹ s⁻¹"}, {"measurement": "kinact/KI", "setting": "[2]", "value": "< 1.5", "unit": "M⁻¹ s⁻¹"}]}, {"smiles": "N[C@@H]1C[C@H]1c1ccsc1", "note": "(relative stereo)", "values": [{"measurement": "kinact/KI", "setting": "[1]", "value": "< 18", "unit": "M⁻¹ s⁻¹"}, {"measurement": "kinact/KI", "setting": "[2]", "value": 22.3, "unit": "M⁻¹ s⁻¹"}, {"measurement": "KI (inactivation)", "setting": "[4]", "value": 1550, "unit": "µM"}]}, {"smiles": "N[C@@H]1C[C@H]1c1cccc2ccccc12", "note": "(relative stereo)", "values": [{"measurement": "kinact/KI", "setting": "[1]", "value": 362, "unit": "M⁻¹ s⁻¹"}, {"measurement": "kinact/KI", "setting": "[2]", "value": 4840, "unit": "M⁻¹ s⁻¹"}, {"measurement": "KI (inactivation)", "setting": "[3]", "value": 38.7, "unit": "µM"}, {"measurement": "KI (inactivation)", "setting": "[4]", "value": 9.8, "unit": "µM"}]}]}
